Data on 15 compounds can be found in patent US12459951B2, “Compounds that interact with RAS superfamily proteins for treatment of cancers, inflammatory diseases, rasopathies, and fibrotic disease” (SHY Therapeutics, LLC, priority 2022, dated 2025).

Assay [1] relates to IL6. In words: IL-6 Quantification Assay (ELISA), LPS-stimulated RAW 264.7. The format is cell-based. Further details: inhibition: dose or concentration left out as unconfirmed. The note with it: Mus musculus, RAW264.7; read-out: IL-6: % inh. A general note: In an ELISA, binding on a coated surface is turned into a signal by an enzyme label.
Assay [2] concerns Erk1/2 phosphorylation. In words: Erk1/2 Phosphorylation Assay (western blot), Panc-1. Type of assay: cell-based, human. The settings on record: at 10 μM, * = activation. Here is the method: Protocol for Western Erk1/2 Cell-Based Phosphorylation Assay
This assay is referred to as the “Erk1/2 Phosphorylation Assay” throughout this application.
Cell lines: Human tumor-derived pancreatic cancer cell line Panc-1 (expressing KRas G12D mutant) was purchased from American Type Culture Collection and grown in complete DMEM-High Glucose medium, supplemented with penicillin (100 U/mL), streptomycin (100 μg/mL), and 10% heat-inactivated FBS at 37° C. in a humidified incubator with 5% CO2.
Method 1: Cells were plated at 350000 cells/well density in a 12-well plate, allowed 3 hours to adhere to the plate, then starved in the appropriate medium in the presence of 0.5% FBS overnight. The small molecules to be tested were added to the cells in the final concentration of 10 μM in the presence of 0.3% DMSO for 6 hours incubation at 37° C. For IC50 value determination, serial dilutions of compounds were added to cells under the same conditions. Next, cells were stimulated with 1.5 ng/ml EGF for 15 minutes then cells were lysed with lysis buffer containing 1% Triton X-100, EDTA, and Halt™ Protease & Phosphatase Inhibitor Cocktail (Thermo Scientific). Protein concentration was assessed by BCA protein assay (Thermo Scientific). Phosphorylation level of Erk1/2 was determined by western blot.
Method 2: Cells were plated at 350000 cells/well density in a 12-well plate in 10% FBS. The next day small molecules to be tested were added to the cells in the final concentration of 10 μM in the presence of 0.3% DMSO for 6 hours incubation at 37° C. For IC50 value determination, serial dilutions of compounds were added to cells under the same conditions. Next, cells were lysed with lysis buffer containing 1% Triton X-100, EDTA, and Halt™ Protease & Phosphatase Inhibitor Cocktail (Thermo Scientific). Protein concentration was assessed by BCA protein assay (Thermo Scientific). Phosphorylation level of Erk1/2 was determined by western blot.
Western blot protocol: Equal amounts of protein (15-50 μg) were separated by SDS-PAGE and transferred to nitrocellulose membranes (Invitrogen by Thermo Fisher Scientific). The membrane was stained with Ponceau S Stain (Boston BioProducts) to verify uniform protein loading. Membranes were blocked with 10% milk and phosphorylation levels of Erk1/2 were assessed by incubating overnight at 4° C. with anti-phospho-p44/42 (Thr202/Tyr204) antibody (Cell Signaling) followed by HRP-conjugated secondary antibody (Jackson Immunoresearch, West Grove, PA). Bands were incubated in Amersham ECL Prime Western Blotting Detection Reagent (GE Healthcare) and visualized using the ChemiDoc MP imaging system (Bio-Rad).
A general note: A western blot detects proteins with antibodies after separation by electrophoresis.

The subject of assay [3] is TNF-alpha. As to the kind of experiment: TNF-alpha Quantification Assay (ELISA), LPS-stimulated RAW 264.7. Type of assay: cell-based. The settings on record: Mus musculus, RAW264.7; at 10 μM; read-out: TNFα: % inh.

On to `CO[C@H]1C[C@H](Nc2nc(-c3nccn3C)nn3cc(-c4ccncc4)c(C)c23)C1` [Compound 159, N-((1r,3r)-3-Methoxycyclobutyl)-5-methyl-2-(1-methyl-1H-imidazol-2-yl)-6-(pyridin-4-yl)pyrrolo[2,1-f][1,2,4]triazin-4-amine], for which the inhibition in assay [1] fell in the range of 1 to 24%. Further, the “% inh of Erk1/2 phosphorylation in Panc-1” value (“% inh” below) in assay [2] is recorded as “A (1-25% inhibition)”. The inhibition at 10 µM in assay [3] turned out to be 0%.

Turning to `COc1ccnc(Nc2nc(-c3nccn3C)nn3cc(-c4cccnc4)c(-c4ccccn4)c23)c1` [Compound 166, N-(4-Methoxypyridin-2-yl)-2-(1-methyl-1H-imidazol-2-yl)-5-(pyridin-2-yl)-6-(pyridin-3-yl)pyrrolo[2,1-f][1,2,4]triazin-4-amine], in assay [1], the inhibition was in the range of 75 to 100%. In addition, the “% inh” value in assay [2] is reported as “B* (26-49% activation)”. In addition, the inhibition at 10 µM in assay [3] lay in the range of 75 to 100%.

Take `Cc1c(-c2ccn(C3CC3)n2)cn2nc(-c3nccn3C)nc(Nc3cc(OC(F)(F)F)ccn3)c12` [Compound 138, 6-(1-Cyclopropyl-1H-pyrazol-3-yl)-5-methyl-2-(1-methyl-1H-imidazol-2-yl)-N-(4-(trifluoromethoxy)pyridin-2-yl)pyrrolo[2,1-f][1,2,4]triazin-4-amine]: the inhibition in assay [1] lay within 50 to 74%. The “% inh” value in assay [2] was “D* (85-100% activation)”. For the same compound, the inhibition at 10 µM in assay [3] came out at 0%.

For the compound `Cc1c(-c2ccn(C3CC3)n2)cn2nc(-c3nccn3C)nc(Nc3cc(OCCCO)ccn3)c12` [Compound 149, 3-((2-((6-(1-Cyclopropyl-1H-pyrazol-3-yl)-5-methyl-2-(1-methyl-1H-imidazol-2-yl)pyrrolo[2,1-f][1,2,4]triazin-4-yl)amino)pyridin-4-yl)oxy)propan-1-ol], the inhibition in assay [1] fell in the range of 75 to 100%. The “% inh” value in assay [2] was “D* (85-100% activation)”. Besides, in assay [3], the inhibition at 10 µM lay within 75 to 100%.

With `Cc1c(-c2ccn(C(C)C)n2)cn2nc(-c3nccn3C)nc(Nc3ncc[nH]3)c12` [Compound 125, N-(1H-Imidazol-2-yl)-6-(1-isopropyl-1H-pyrazol-3-yl)-5-methyl-2-(1-methyl-1H-imidazol-2-yl)pyrrolo[2,1-f][1,2,4]triazin-4-amine], in assay [1], the inhibition was 50 to 74%. Besides, in assay [2], the “% inh” value is recorded as “A (1-25% inhibition)”. Further, in assay [3], the inhibition at 10 µM was 1 to 24%.

For `Cc1c(-c2ccn(C3CC3)n2)cn2nc(-c3nccn3C)nc(Nc3cc(OCCCN(C)C)ccn3)c12` [Compound 148, 6-(1-Cyclopropyl-1H-pyrazol-3-yl)-N-(4-(3-(dimethylamino)propoxy)pyridin-2-yl)-5-methyl-2-(1-methyl-1H-imidazol-2-yl)pyrrolo[2,1-f][1,2,4]triazin-4-amine], the inhibition in assay [1] fell in the range of 1 to 24%. For the same compound, the “% inh” value in assay [2] was “C* (46-84% activation)”. For the same compound, the inhibition at 10 µM in assay [3] fell in the range of 1 to 24%.

As for `Cc1c(-c2ccn(C)n2)cn2nc(-c3nccn3C)nc(Cl)c12` [Compound 99, 4-Chloro-5-methyl-2-(1-methyl-1H-imidazol-2-yl)-6-(1-methyl-1H-pyrazol-3-yl)pyrrolo[2,1-f][1,2,4]triazine], in assay [1], the inhibition was in the range of 75 to 100%. Moreover, the “% inh” value in assay [2] is “D* (85-100% activation)”. The inhibition at 10 µM in assay [3] fell in the range of 75 to 100%.

Regarding `COc1cc(-c2cn3nc(-c4nccn4C)nc(N[C@H]4C[C@H](OC)C4)c3c2C)ccn1` [Compound 160, N-((1r,3r)-3-Methoxycyclobutyl)-6-(2-methoxypyridin-4-yl)-5-methyl-2-(1-methyl-1H-imidazol-2-yl)pyrrolo[2,1-f][1,2,4]triazin-4-amine], the inhibition in assay [1] fell in the range of 75 to 100%. Also, the “% inh” value in assay [2] is on record as “A* (1-25% activation)”. The inhibition at 10 µM in assay [3] was 25 to 49%.

Take `CO[C@H]1C[C@@H](Nc2nc(-c3nccn3C)nn3cc(-c4cccnc4)c(C)c23)C1` [Compound 153, N-((1s,3s)-3-methoxy-cyclobutyl)-5-methyl-2-(1-methyl-1H-imidazol-2-yl)-6-(pyridin-3-yl)pyrrolo[2,1-f][1,2,4]triazin-4-amine]: in assay [1], the inhibition was found to be 0%. Besides, in assay [2], the “% inh” value is listed as “A (1-25% inhibition)”. For the same compound, the inhibition at 10 µM in assay [3] stood at 0%.

Take `Cc1c(-c2ccn(C)n2)cn2nc(-c3nccn3C)nc(Nc3ncccn3)c12.Cl` [Compound 115, 5-Methyl-2-(1-methyl-1H-imidazol-2-yl)-6-(1-methyl-1H-pyrazol-3-yl)-N-(pyrimidin-2-yl)pyrrolo[2,1-f][1,2,4]triazin-4-amine hydrochloride salt]: the inhibition in assay [1] fell in the range of 50 to 74%. Moreover, the “% inh” value in assay [2] is recorded as “C (50-84% inhibition)”. In addition, the inhibition at 10 µM in assay [3] came out at 0%.

With `CCc1nc(Nc2nc(-c3nccn3C)nn3cc(-c4ccn(C)n4)c(C)c23)nn1C` [Compound 108, N-(5-Ethyl-1-methyl-1H-1,2,4-triazol-3-yl)-5-methyl-2-(1-methyl-1H-imidazol-2-yl)-6-(1-methyl-1H-pyrazol-3-yl)pyrrolo[2,1-f][1,2,4]triazin-4-amine], the inhibition in assay [1] is 50 to 74%. For the same compound, the “% inh” value in assay [2] is “A* (1-25% activation)”. For the same compound, the inhibition at 10 µM in assay [3] stood at 0%.

As to `Cc1c(-c2ccn(C)n2)cn2nc(-c3nccn3C)nc(Nc3cc(OC(C)C)ccn3)c12` [Compound 136, N-(4-Isopropoxypyridin-2-yl)-5-methyl-2-(1-methyl-1H-imidazol-2-yl)-6-(1-methyl-1H-pyrazol-3-yl)pyrrolo[2,1-f][1,2,4]triazin-4-amine], the inhibition in assay [1] was in the range of 25 to 49%. For the same compound, the “% inh” value in assay [2] is recorded as “D* (85-100% activation)”. Besides, the inhibition at 10 µM in assay [3] was in the range of 1 to 24%.

As for `CO[C@@H]1CC[C@@H](Nc2nc(-c3nccn3C)nn3cc(-c4ccn(C)n4)c(C)c23)C1` (racemic) [Compound 132, rac N-((1R,3R)-3-Methoxycyclopentyl)-5-methyl-2-(1-methyl-1H-imidazol-2-yl)-6-(1-methyl-1H-pyrazol-3-yl)pyrrolo[2,1-f][1,2,4]triazin-4-amine], in assay [1], the inhibition is 0%. For the same compound, the “% inh” value in assay [2] is 0 (0% inhibition). In addition, the inhibition at 10 µM in assay [3] turned out to be 0%.

With `COc1cc(-c2cn3nc(-c4nccn4C)nc(N[C@@H]4CC[C@@H](OC)C4)c3c2C)ccn1` (racemic) [Compound 163, rac N-((1R,3R)-3-Methoxycyclopentyl)-6-(2-methoxypyridin-4-yl)-5-methyl-2-(1-methyl-1H-imidazol-2-yl)pyrrolo[2,1-f][1,2,4]triazin-4-amine], in assay [1], the inhibition was 75 to 100%. For the same compound, the “% inh” value in assay [2] is given as “A* (1-25% activation)”. Besides, the inhibition at 10 µM in assay [3] lay in the range of 1 to 24%.

In the case of `Cc1c(-c2ccn(C3CC3)n2)cn2nc(-c3nccn3C)nc(Nc3cc(O)ccn3)c12` [Compound 150, 2-((6-(1-Cyclopropyl-1H-pyrazol-3-yl)-5-methyl-2-(1-methyl-1H-imidazol-2-yl)pyrrolo[2,1-f][1,2,4]triazin-4-yl)amino)pyridin-4-ol], the inhibition in assay [1] lay within 1 to 24%. In assay [2], the “% inh” value is “A (1-25% inhibition)”. Further, the inhibition at 10 µM in assay [3] worked out at 0%.
